In article doi:10.1101/2025.01.28.635346v1 (bioRxiv, 2025):
Bridge positions count the residues as written; N and C are the ends. Side chains are listed from the residue outwards. Peptide text beside a SMILES is read from it. * marks the point of attachment. Butanoyl(4-(4-I-phenyl)) = O=C(CCCc1ccc(I)cc1)*; PEG2 = NCCOCCOCCC(=O)O

Legend:
nAChR(a4/b2) = nAChR(a4/b2) (Homo sapiens, UniProt P17787+P43681); test: Safetyscan47 Ion Channel, Blocker; assay type: cell-based; conditions: for Emax: read-out: Max Response
AR = target: T1, AR (Homo sapiens, UniProt P10275); test: Safetyscan47 NHR Nuclear Translocation, Antagonist; assay type: cell-based; conditions: for Emax: read-out: Max Response
T1 sequence (P10275 1-920): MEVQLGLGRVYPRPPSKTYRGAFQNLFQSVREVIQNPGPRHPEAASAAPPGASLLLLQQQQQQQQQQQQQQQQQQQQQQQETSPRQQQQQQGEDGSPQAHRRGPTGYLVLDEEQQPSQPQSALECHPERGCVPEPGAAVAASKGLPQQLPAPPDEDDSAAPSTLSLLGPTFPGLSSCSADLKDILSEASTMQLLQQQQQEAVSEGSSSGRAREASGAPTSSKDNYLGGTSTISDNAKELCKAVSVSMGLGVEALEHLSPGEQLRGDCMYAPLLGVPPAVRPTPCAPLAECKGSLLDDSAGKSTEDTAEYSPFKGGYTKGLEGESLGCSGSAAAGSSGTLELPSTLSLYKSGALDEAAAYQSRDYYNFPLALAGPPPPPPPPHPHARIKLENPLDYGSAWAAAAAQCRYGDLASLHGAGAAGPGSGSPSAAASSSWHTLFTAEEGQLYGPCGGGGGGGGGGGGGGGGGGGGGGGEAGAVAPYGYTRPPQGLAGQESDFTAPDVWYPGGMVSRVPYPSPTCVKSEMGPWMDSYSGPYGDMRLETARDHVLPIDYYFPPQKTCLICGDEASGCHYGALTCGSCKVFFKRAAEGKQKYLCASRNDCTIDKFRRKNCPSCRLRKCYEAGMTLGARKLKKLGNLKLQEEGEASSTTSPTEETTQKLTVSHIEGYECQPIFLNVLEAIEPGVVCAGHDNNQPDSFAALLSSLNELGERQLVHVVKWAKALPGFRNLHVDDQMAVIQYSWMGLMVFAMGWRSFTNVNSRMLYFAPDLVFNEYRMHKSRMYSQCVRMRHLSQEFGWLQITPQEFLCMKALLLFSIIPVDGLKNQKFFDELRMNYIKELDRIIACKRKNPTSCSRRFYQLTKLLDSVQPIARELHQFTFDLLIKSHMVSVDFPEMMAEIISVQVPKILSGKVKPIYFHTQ

[1] = Hepatocyte stability, cryopreserved human hepatocytes; assay type: in vitro ADME
CNR1 = CNR1 (Homo sapiens, UniProt P21554); test: Safetyscan47 GPCR cAMP, Antagonist; assay type: cell-based; conditions: for Emax: read-out: Max Response
CHRM2 = target: T2, CHRM2 (Homo sapiens, UniProt P08172); test: Safetyscan47 GPCR cAMP, Antagonist; assay type: cell-based; conditions: for Emax: read-out: Max Response
T2 sequence (P08172 1-466): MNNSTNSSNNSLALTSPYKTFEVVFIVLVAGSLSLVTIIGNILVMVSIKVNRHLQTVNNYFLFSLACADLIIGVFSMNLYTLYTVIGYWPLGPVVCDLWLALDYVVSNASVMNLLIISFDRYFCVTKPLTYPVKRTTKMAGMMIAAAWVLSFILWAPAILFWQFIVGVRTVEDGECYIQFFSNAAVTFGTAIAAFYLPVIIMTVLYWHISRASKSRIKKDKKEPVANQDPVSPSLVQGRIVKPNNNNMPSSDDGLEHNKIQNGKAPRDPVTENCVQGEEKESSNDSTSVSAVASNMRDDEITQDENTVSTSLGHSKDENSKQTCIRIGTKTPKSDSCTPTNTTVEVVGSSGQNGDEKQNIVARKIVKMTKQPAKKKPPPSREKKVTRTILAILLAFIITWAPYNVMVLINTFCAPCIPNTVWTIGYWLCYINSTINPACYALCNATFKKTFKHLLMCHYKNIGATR

AVPR1A = AVPR1A (Homo sapiens, UniProt P37288); test: Safetyscan47 GPCR Calcium Flux, Antagonist; assay type: cell-based; conditions: for Emax: read-out: Max Response
DRD1 = DRD1 (Homo sapiens, UniProt P21728); test: Safetyscan47 GPCR cAMP, Antagonist; assay type: cell-based; conditions: for Emax: read-out: Max Response
HTR3A = target: T3, HTR3A (Homo sapiens, UniProt P46098); test: Safetyscan47 Ion Channel, Blocker; assay type: cell-based; conditions: for Emax: read-out: Max Response
T3 sequence (P46098 24-478): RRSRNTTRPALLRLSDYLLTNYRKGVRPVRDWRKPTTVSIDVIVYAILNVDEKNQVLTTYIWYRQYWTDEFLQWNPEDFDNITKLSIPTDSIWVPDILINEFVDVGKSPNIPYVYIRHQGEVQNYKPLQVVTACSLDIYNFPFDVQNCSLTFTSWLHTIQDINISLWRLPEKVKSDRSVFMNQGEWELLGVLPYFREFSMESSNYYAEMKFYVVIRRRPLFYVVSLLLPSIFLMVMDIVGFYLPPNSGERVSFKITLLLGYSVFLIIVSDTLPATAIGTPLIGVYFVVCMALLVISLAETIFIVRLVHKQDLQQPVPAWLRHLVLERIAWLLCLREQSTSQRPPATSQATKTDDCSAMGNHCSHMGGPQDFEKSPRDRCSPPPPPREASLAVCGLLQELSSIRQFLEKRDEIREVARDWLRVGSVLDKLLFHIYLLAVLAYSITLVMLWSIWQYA

integrin αvβ1 = integrin αvβ1 (Homo sapiens, UniProt P05556+P06756); test: ELISA competition assay, integrin αvβ1; assay type: binding
ADRB1 = ADRB1 (Homo sapiens, UniProt P08588); test: Safetyscan47 GPCR cAMP, Antagonist; assay type: cell-based; conditions: for Emax: read-out: Max Response
DRD2S = DRD2S (Homo sapiens, UniProt P14416); test: Safetyscan47 GPCR cAMP, Agonist; assay type: cell-based; conditions: for Emax: read-out: Max Response
NET = NET (Homo sapiens, UniProt P23975); test: Safetyscan47 Transporter, Blocker; assay type: cell-based; conditions: for Emax: read-out: Max Response
[2] = Plasma stability, mouse plasma; assay type: in vitro ADME
HTR1B = HTR1B (Homo sapiens, UniProt P28222); test: Safetyscan47 GPCR cAMP, Agonist; assay type: cell-based; conditions: for Emax: read-out: Max Response
HTR1B, sequence (P28222 whole entry): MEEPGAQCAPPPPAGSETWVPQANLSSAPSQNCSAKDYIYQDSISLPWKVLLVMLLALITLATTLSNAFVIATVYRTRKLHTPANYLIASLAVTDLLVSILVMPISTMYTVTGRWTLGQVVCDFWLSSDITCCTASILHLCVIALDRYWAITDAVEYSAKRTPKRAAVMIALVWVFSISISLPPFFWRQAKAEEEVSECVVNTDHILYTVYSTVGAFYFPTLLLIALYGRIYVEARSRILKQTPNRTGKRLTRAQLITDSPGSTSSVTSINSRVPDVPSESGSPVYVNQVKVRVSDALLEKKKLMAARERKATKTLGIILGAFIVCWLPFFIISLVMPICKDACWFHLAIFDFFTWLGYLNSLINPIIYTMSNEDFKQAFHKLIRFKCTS

AVPR1A, sequence (P37288 whole entry): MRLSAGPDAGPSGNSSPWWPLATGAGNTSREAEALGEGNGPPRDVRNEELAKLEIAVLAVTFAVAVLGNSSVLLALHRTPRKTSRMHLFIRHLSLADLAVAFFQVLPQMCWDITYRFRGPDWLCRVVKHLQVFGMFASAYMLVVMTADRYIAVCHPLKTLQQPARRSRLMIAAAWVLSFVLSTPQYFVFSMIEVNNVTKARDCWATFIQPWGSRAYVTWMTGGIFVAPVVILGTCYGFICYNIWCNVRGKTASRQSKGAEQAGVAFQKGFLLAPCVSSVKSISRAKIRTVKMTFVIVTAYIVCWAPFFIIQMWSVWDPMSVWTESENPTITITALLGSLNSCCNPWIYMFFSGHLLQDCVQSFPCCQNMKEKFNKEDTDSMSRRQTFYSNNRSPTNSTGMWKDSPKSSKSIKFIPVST
DRD1, sequence (P21728 whole entry): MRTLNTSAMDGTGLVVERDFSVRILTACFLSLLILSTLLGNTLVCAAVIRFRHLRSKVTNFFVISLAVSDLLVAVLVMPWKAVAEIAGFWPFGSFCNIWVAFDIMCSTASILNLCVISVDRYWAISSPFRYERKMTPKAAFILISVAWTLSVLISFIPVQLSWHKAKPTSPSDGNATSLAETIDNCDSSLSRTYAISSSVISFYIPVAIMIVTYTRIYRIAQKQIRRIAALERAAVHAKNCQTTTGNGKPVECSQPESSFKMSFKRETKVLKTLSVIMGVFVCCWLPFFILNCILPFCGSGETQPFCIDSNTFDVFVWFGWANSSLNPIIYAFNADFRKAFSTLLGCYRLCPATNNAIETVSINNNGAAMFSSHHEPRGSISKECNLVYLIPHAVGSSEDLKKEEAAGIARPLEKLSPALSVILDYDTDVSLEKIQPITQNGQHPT
NET, sequence (P23975 whole entry): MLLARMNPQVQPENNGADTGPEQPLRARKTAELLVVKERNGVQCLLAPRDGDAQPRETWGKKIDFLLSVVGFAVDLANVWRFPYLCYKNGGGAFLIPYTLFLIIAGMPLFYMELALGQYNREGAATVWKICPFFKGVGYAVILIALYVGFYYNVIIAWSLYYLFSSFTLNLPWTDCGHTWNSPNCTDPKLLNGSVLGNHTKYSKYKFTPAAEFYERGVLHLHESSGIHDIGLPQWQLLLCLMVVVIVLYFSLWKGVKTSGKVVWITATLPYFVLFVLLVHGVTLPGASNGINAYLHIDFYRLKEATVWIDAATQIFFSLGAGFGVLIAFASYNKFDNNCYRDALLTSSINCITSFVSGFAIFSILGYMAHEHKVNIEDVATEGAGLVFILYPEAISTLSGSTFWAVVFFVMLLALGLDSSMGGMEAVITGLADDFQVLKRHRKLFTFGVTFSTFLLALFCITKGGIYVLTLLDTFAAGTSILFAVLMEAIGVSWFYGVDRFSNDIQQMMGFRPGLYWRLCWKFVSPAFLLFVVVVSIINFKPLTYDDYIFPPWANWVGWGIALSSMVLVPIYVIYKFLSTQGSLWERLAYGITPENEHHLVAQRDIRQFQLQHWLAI
nAChR(a4/b2), sequence (P43681 29-627 limits assumed): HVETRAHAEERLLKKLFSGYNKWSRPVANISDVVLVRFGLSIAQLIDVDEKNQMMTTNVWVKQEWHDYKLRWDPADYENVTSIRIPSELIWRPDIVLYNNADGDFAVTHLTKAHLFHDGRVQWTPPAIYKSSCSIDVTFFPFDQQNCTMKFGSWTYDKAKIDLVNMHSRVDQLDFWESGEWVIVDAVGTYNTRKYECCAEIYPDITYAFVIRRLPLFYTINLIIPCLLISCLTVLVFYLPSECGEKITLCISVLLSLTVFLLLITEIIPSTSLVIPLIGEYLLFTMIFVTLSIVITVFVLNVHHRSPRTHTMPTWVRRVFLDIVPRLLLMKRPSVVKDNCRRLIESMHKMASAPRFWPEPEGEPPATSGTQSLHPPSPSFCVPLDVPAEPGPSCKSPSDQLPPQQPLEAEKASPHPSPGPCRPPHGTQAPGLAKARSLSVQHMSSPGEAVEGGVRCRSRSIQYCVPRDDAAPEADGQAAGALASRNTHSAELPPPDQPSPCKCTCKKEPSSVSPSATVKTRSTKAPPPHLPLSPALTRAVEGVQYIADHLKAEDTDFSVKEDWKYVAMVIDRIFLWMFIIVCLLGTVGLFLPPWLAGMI
nAChR(a4/b2), sequence (P17787 26-502): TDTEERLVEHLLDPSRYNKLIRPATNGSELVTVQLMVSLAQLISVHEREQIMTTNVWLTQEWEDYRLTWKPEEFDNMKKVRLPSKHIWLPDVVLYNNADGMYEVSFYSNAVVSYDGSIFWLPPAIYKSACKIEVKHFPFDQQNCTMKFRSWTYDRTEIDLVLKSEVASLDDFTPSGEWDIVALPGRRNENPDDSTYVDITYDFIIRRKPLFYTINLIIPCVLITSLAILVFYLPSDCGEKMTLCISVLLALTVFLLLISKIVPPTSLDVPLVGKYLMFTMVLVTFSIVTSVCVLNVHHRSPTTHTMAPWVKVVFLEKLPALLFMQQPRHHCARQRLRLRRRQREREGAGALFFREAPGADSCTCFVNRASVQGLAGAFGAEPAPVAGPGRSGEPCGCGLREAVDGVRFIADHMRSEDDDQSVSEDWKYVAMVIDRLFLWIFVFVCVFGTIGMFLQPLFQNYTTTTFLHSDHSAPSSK
ADRB1, sequence (P08588 whole entry): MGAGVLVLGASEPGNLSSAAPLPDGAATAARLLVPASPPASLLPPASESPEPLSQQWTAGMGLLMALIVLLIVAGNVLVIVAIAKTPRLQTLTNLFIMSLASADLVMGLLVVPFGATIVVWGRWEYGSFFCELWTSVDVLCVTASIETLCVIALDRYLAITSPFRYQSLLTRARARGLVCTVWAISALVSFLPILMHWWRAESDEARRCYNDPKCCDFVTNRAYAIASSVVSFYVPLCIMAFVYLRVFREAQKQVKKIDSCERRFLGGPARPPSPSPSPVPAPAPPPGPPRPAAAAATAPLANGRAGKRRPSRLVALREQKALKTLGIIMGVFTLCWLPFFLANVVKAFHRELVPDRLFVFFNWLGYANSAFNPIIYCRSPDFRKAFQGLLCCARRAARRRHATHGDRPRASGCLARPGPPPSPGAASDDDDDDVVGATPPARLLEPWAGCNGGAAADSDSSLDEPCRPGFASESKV
DRD2S, sequence (P14416 1-414 isoform P14416-2): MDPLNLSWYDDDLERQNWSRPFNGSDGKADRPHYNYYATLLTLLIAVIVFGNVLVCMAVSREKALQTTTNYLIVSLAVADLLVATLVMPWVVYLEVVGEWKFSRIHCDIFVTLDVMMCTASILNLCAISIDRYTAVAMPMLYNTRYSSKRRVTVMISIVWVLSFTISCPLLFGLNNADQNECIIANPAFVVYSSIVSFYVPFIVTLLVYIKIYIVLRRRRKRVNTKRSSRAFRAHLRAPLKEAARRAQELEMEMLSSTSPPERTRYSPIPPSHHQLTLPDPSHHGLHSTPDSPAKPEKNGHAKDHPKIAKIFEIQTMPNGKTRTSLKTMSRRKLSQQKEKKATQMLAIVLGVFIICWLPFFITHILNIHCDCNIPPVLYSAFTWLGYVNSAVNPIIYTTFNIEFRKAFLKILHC
CNR1, sequence (P21554 whole entry): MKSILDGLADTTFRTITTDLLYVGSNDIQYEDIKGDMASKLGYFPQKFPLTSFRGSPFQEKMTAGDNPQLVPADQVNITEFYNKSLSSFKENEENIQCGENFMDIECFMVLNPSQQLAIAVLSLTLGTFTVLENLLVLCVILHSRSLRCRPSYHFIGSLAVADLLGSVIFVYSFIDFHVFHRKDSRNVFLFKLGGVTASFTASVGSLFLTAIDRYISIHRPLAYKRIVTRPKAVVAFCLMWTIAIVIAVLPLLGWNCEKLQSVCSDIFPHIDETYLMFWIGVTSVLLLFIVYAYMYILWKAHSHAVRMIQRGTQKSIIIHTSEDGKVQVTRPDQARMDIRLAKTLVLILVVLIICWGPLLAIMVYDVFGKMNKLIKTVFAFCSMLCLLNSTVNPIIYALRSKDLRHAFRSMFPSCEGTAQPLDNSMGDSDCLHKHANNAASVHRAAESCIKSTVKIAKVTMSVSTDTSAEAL

SMILES	IC50 (nAChR(a4/b2))	Emax (nAChR(a4/b2))	IC50 (AR)	Emax (AR)	remaining at 1 h, 2 μM [1]	remaining at 3 h, 2 μM [1]	IC50 (CNR1)	Emax (CNR1)	IC50 (CHRM2)	Emax (CHRM2)	IC50 (AVPR1A)	Emax (AVPR1A)	IC50 (DRD1)	Emax (DRD1)	IC50 (HTR3A)	Emax (HTR3A)	IC50 (integrin αvβ1)	IC50 (ADRB1)	Emax (ADRB1)	EC50 (DRD2S)	other results
CC[C@H](C)[C@H](NC(=O)[C@H](CC(C)C)NC(=O)[C@H](CC(=O)O)NC(=O)CNC(=O)[C@H](CCCNC(=N)N)NC(=O)[C@@H](NC(=O)[C@H](Cc1ccccc1)NC(=O)[C@H](Cc1ccc(O)cc1)NC(=O)[C@@H]1CCC(=O)NCC(=O)NCC(=O)N[C@@H](CCCNC(=N)N)C(=O)NCC(=O)N[C@@H](Cc2c[nH]cn2)C(=O)N[C@@H](C(C)C)C(=O)N2CCC[C@H]2C(=O)N1)C(C)C)C(=O)N[C@@H](CO)C(=O)N[C@@H](Cc1ccccc1)C(=O)N[C@@H](Cc1ccc(O)cc1)C(=O)N[C@@H](CCCCN)C(=O)O [lassotide 36] (GGRGHVPEYFVRGDLISFYK-OH; lactam N-8)	> 45 µM	2.98%	> 45 µM	0%	87.9%	57.8%	> 45 µM	9.79%	> 45 µM	0%	> 45 µM	13.3%	> 45 µM	11.1%	> 45 µM	8.73%	84 nM	> 45 µM	15.6%	> 45 µM	half-life at 2 μM [1]: 246 min; Emax (DRD2S): 0%; IC50 (NET): > 45 µM; Emax (NET): 0.35%; half-life at 2 μM [2]: 306 min; remaining at 0.5 h, 2 μM [2]: 88.7%; remaining at 4 h, 2 μM [2]: 56.1%; EC50 (HTR1B): > 45 µM; Emax (HTR1B): 2.61%
CC[C@H](C)[C@H](NC(=O)[C@H](CC(C)C)NC(=O)[C@H](CC(=O)O)NC(=O)CNC(=O)[C@H](CCCNC(=N)N)NC(=O)[C@@H](NC(=O)[C@H](Cc1ccccc1)NC(=O)[C@H](Cc1ccc(O)cc1)NC(=O)[C@@H]1CCC(=O)NCC(=O)NCC(=O)N[C@@H](CCCNC(=N)N)C(=O)NCC(=O)N[C@@H](Cc2c[nH]cn2)C(=O)N[C@@H](C(C)C)C(=O)N2CCC[C@H]2C(=O)N1)C(C)C)C(=O)N[C@@H](CO)C(=O)N[C@@H](Cc1ccccc1)C(=O)N[C@@H](Cc1ccc(O)cc1)C(=O)N[C@@H](CCCCNC(=O)CCOCCOCCNC(=O)CCCc1ccc(I)cc1)C(=O)O [lassotide 47] (GGRGHVPEYFVRGDLISFYK([PEG2-Butanoyl(4-(4-I-phenyl))])-OH; lactam N-8)	> 45 µM	4.35%	> 45 µM	0%	85.3%	84.8%	> 45 µM	0%	> 45 µM	0%	> 45 µM	25.8%	> 45 µM	35.1%	> 45 µM	9.38%	1230 nM	> 45 µM	40%	> 45 µM	Emax (DRD2S): 24.1%; IC50 (NET): > 45 µM; Emax (NET): 0%; remaining at 0.5 h, 2 μM [2]: 86.3%; remaining at 4 h, 2 μM [2]: 86.9%; EC50 (HTR1B): > 45 µM; Emax (HTR1B): 22.4%
